# Measured values reported in the CombiSolv-Exp solvation set (Vermeire and Green 2021).
# Experiment: solvent given as SMILES
# [1] = in CCCCCCCCC=CCCCCCCCC(=O)OCC(COC(=O)CCCCCCCC=CCCCCCCCC)OC(=O)CCCCCCCC=CCCCCCCCC
smiles,measurement,setting,value
O=[N+]([O-])c1c(Cl)c(Cl)c(Cl)c(Cl)c1Cl,"solvation free energy, 298 K",[1],-10.5 kcal/mol
CCC(C)Cl (stereo not given),"solvation free energy, 298 K",in C1CCOC1,-4.34 kcal/mol
same,"solvation free energy, 298 K",in C1CCOCC1,-4.24 kcal/mol
same,"solvation free energy, 298 K",in C1COCCO1,-4.08 kcal/mol
same,"solvation free energy, 298 K",in C=CCCCCCCCCCCCCCC,-3.46 kcal/mol
same,"solvation free energy, 298 K",in CC(C)OC(C)C,-3.95 kcal/mol
same,"solvation free energy, 298 K",in CCCCCC,-3.84 kcal/mol
same,"solvation free energy, 298 K",in CCCCCl,-4.16 kcal/mol
same,"solvation free energy, 298 K",in COC(C)(C)C,-4.08 kcal/mol
COc1cccc(N)c1,"solvation free energy, 298 K",in O,-7.29 kcal/mol
CN1CCCC1,"solvation free energy, 298 K",in CCCCCCCCO,-4.97 kcal/mol
O=C(O)CCC(=O)O,"solvation free energy, 298 K",in CC(C)O,-12.3 kcal/mol
same,"solvation free energy, 298 K",in CCCO,-12.2 kcal/mol
same,"solvation free energy, 298 K",in CCO,-12.6 kcal/mol
same,"solvation free energy, 298 K",in O,-12.6 kcal/mol
same,"solvation free energy, 298 K",in O=C1CCCCC1,-11.7 kcal/mol
O=C(O)c1cc(O)c(O)c(O)c1,"solvation free energy, 298 K",in CCO,-19.8 kcal/mol
Cc1cccnc1C,"solvation free energy, 298 K",in O,-4.82 kcal/mol
Cc1ccccc1C(C)C,"solvation free energy, 298 K",in O,-0.82 kcal/mol
CC1CCCC(C)(C)C1 (stereo not given),"solvation free energy, 298 K",in O,2.23 kcal/mol
C=CC(C)(C)C,"solvation free energy, 298 K",in C=CCCCCCCCCCCCCCC,-2.97 kcal/mol
same,"solvation free energy, 298 K",in O,1.57 kcal/mol
CCOP(=S)(OCC)SCSc1ccc(Cl)cc1,"solvation free energy, 298 K",in O,-6.5 kcal/mol
O=C(Oc1ccccc1)c1ccccc1C(=O)Oc1ccccc1,"solvation free energy, 298 K",in O,-11.6 kcal/mol
CC(=O)C(C)C,"solvation free energy, 298 K",in CCCCCCCCCCCCCCCC,-3.52 kcal/mol
same,"solvation free energy, 298 K",in CCCCCCCCO,-4.15 kcal/mol
same,"solvation free energy, 298 K",in O,-3.24 kcal/mol
same,"solvation free energy, 298 K",in [2H]O[2H],-3.22 kcal/mol
CC(=O)OC(C)C,"solvation free energy, 298 K",in CC(C)CCCC(C)CCCC(C)CCCCC(C)CCCC(C)CCCC(C)C,-3.52 kcal/mol
same,"solvation free energy, 298 K",in CCCCCCCCCC,-3.79 kcal/mol
same,"solvation free energy, 298 K",in CCCCCCCCCCCCCCCC,-3.55 kcal/mol
same,"solvation free energy, 298 K",in CCCCCCCCO,-3.99 kcal/mol
same,"solvation free energy, 298 K",in O,-2.59 kcal/mol
same,"solvation free energy, 298 K",in [2H]O[2H],-2.62 kcal/mol
CCC(C)C(C)O (stereo not given),"solvation free energy, 298 K",in CCCCCCCC,-4.87 kcal/mol
same,"solvation free energy, 298 K",in CCCCCCCCCC,-4.81 kcal/mol
Cc1cccc(C)c1C,"solvation free energy, 298 K",in O,-1.15 kcal/mol
Cc1ccc(O)cc1C,"solvation free energy, 298 K",in CCCCCC,-6.89 kcal/mol
same,"solvation free energy, 298 K",in CCCCCCC,-6.89 kcal/mol
same,"solvation free energy, 298 K",in CCCCCCCC,-6.85 kcal/mol
same,"solvation free energy, 298 K",in O,-6.51 kcal/mol
O=C(Oc1ccccc1)Oc1ccccc1,"solvation free energy, 298 K",in CC(C)CO,-11.2 kcal/mol
same,"solvation free energy, 298 K",in CC(C)O,-11.3 kcal/mol
same,"solvation free energy, 298 K",in CCC(C)O,-11.2 kcal/mol
same,"solvation free energy, 298 K",in CCCCO,-11.4 kcal/mol
same,"solvation free energy, 298 K",in CCCO,-11.5 kcal/mol
same,"solvation free energy, 298 K",in CCO,-11.6 kcal/mol
same,"solvation free energy, 298 K",in CO,-11.8 kcal/mol
CCCCC(=O)CC,"solvation free energy, 298 K",in CCCCCCC,-5.42 kcal/mol
same,"solvation free energy, 298 K",in CCCCO,-5.8 kcal/mol
same,"solvation free energy, 298 K",in CO,-5.85 kcal/mol
same,"solvation free energy, 298 K",in O,-3.04 kcal/mol
CC(C)CBr,"solvation free energy, 298 K",in C=CCCCCCCCCCCCCCC,-3.98 kcal/mol
same,"solvation free energy, 298 K",in O,-0.03 kcal/mol
CC(F)(Cl)Cl,"solvation free energy, 298 K",in CCCCCCCC(=O)OCC(COC(=O)CCCCCCC)OC(=O)CCCCCCC,-2.89 kcal/mol
Cc1ccc([N+](=O)[O-])cc1,"solvation free energy, 298 K",in O,-4.96 kcal/mol
CCOP(=S)(OCC)Oc1cc(C)nc(C(C)C)n1,"solvation free energy, 298 K",in O,-6.48 kcal/mol
C=CC=CCC,"solvation free energy, 298 K",in C=CCCCCCCCCCCCCCC,-3.64 kcal/mol
same,"solvation free energy, 298 K",in CN1CCCC1=O,-3.67 kcal/mol
same,"solvation free energy, 298 K",in O,0.75 kcal/mol
Cc1c[nH]cn1,"solvation free energy, 298 K",in O,-10.3 kcal/mol
O=[N+]([O-])c1c(Cl)c(Cl)cc(Cl)c1Cl,"solvation free energy, 298 K",[1],-10.8 kcal/mol
same,"solvation free energy, 298 K",in O,-3.77 kcal/mol
CNc1nc(NC(C)C)nc(SC)n1,"solvation free energy, 298 K",in O,-10.5 kcal/mol
Nc1ccc(C(=O)O)cc1,"solvation free energy, 298 K",in C1COCCO1,-14.6 kcal/mol
same,"solvation free energy, 298 K",in CC(C)CCO,-13.7 kcal/mol
same,"solvation free energy, 298 K",in CC(C)CO,-13.8 kcal/mol
same,"solvation free energy, 298 K",in CC(C)O,-14.2 kcal/mol
same,"solvation free energy, 298 K",in CCC(C)O,-14 kcal/mol
same,"solvation free energy, 298 K",in CCCC(C)O,-13.9 kcal/mol
same,"solvation free energy, 298 K",in CCCCCCCCCCO,-13.3 kcal/mol
same,"solvation free energy, 298 K",in CCCCCCCCO,-13.5 kcal/mol
same,"solvation free energy, 298 K",in CCCCCCCO,-13.7 kcal/mol
same,"solvation free energy, 298 K",in CCCCCCO,-13.8 kcal/mol
same,"solvation free energy, 298 K",in CCCCCO,-13.9 kcal/mol
same,"solvation free energy, 298 K",in CCCCO,-14.1 kcal/mol
same,"solvation free energy, 298 K",in CCCO,-14.3 kcal/mol
same,"solvation free energy, 298 K",in CCO,-14.6 kcal/mol
same,"solvation free energy, 298 K",in CCOCC,-13.6 kcal/mol
Cc1cc(NS(=O)(=O)c2ccc(N)cc2)nc(C)n1,"solvation free energy, 298 K",in O,-21.9 kcal/mol
C=C(C)C1CC=C(C)C(OC(C)=O)C1 (stereo not given),"solvation free energy, 298 K",in O,-4 kcal/mol
C=C(C)C,"solvation free energy, 298 K",in CC(C)(C)O,-2.03 kcal/mol
same,"solvation free energy, 298 K",in CC(C)=O,-2.37 kcal/mol
same,"solvation free energy, 298 K",in CC(C)CCO,-1.99 kcal/mol
same,"solvation free energy, 298 K",in CC(C)CO,-1.98 kcal/mol
same,"solvation free energy, 298 K",in CC(C)O,-1.98 kcal/mol
same,"solvation free energy, 298 K",in CCC(C)(C)O,-2.09 kcal/mol
same,"solvation free energy, 298 K",in CCC(C)CO,-1.98 kcal/mol
same,"solvation free energy, 298 K",in CCC(C)O,-1.99 kcal/mol
same,"solvation free energy, 298 K",in CCC(O)CC,-2.01 kcal/mol
same,"solvation free energy, 298 K",in CCCC(C)O,-2.01 kcal/mol
same,"solvation free energy, 298 K",in CCCCC,-2.49 kcal/mol
same,"solvation free energy, 298 K",in CCCCCC,-2.43 kcal/mol
same,"solvation free energy, 298 K",in CCCCCCC,-2.44 kcal/mol
same,"solvation free energy, 298 K",in CCCCCCCC,-2.41 kcal/mol
same,"solvation free energy, 298 K",in CCCCCCCCC,-2.39 kcal/mol
same,"solvation free energy, 298 K",in CCCCCCCCCC,-2.36 kcal/mol
same,"solvation free energy, 298 K",in CCCCCO,-2.01 kcal/mol
same,"solvation free energy, 298 K",in CCCCO,-2.17 kcal/mol
same,"solvation free energy, 298 K",in CCCO,-2.01 kcal/mol
same,"solvation free energy, 298 K",in CCOC(C)=O,-2.55 kcal/mol
same,"solvation free energy, 298 K",in CN1CCCC1=O,-1.8 kcal/mol
same,"solvation free energy, 298 K",in CN(C)C=O,-1.98 kcal/mol
same,"solvation free energy, 298 K",in Cc1ccc(C)cc1,-2.32 kcal/mol
same,"solvation free energy, 298 K",in Cc1cccc(C)c1,-2.33 kcal/mol
same,"solvation free energy, 298 K",in Cc1ccccc1C,-2.31 kcal/mol
same,"solvation free energy, 298 K",in ClC(Cl)(Cl)Cl,-2.44 kcal/mol
same,"solvation free energy, 298 K",in Ic1ccccc1,-1.91 kcal/mol
same,"solvation free energy, 298 K",in N#Cc1ccccc1,-1.97 kcal/mol
same,"solvation free energy, 298 K",in O,1.17 kcal/mol
same,"solvation free energy, 298 K",in O=CN1CCOCC1,-1.36 kcal/mol
same,"solvation free energy, 298 K",in c1ccccc1,-2.32 kcal/mol
C1CCCCCCC1,"solvation free energy, 298 K",in CCCCCCCCCCCCCCCC,-5.55 kcal/mol
same,"solvation free energy, 298 K",in CN1CCCC1=O,-4.77 kcal/mol
same,"solvation free energy, 298 K",in CN(C)C=O,-4.39 kcal/mol
same,"solvation free energy, 298 K",in COCCO,-4.52 kcal/mol
same,"solvation free energy, 298 K",in CS(C)=O,-3.85 kcal/mol
same,"solvation free energy, 298 K",in N#CCCCCC#N,-4.01 kcal/mol
same,"solvation free energy, 298 K",in NCCO,-3 kcal/mol
same,"solvation free energy, 298 K",in O,0.91 kcal/mol
